From BigSolDB 2.1

Cl.N[C@@H](Cc1ccccc1)C(=O)OCc1ccccc1
solubility (mole fraction)
Settings | 283.15 K | 288.15 K | 293.15 K | 298.15 K | 303.15 K | 313.15 K | 323.15 K
in acetone | 8e-05 | – | 0.000134 | – | 0.000224 | 0.000347 | 0.000511
in acetonitrile | 5.4e-05 | 0.000115 | 0.000188 | 0.000262 | 0.000365 | – | –
in ethanol | 0.00311 | – | 0.00396 | – | 0.00491 | 0.00625 | 0.00832
in ethyl acetate | – | 2.6e-05 | 3.8e-05 | – | 6.3e-05 | 0.000116 | 0.000181
in isobutanol | – | 0.00056 | 0.000879 | – | 0.00121 | 0.00174 | 0.00256
in isopropanol | 0.000417 | – | 0.000588 | – | 0.000882 | 0.00123 | 0.00178
in methanol | 0.0158 | – | 0.0186 | – | 0.0223 | 0.0274 | 0.0324
in n-butanol | 0.0011 | – | 0.0015 | – | 0.00191 | 0.00263 | 0.0039
in n-pentanol | 0.000703 | – | 0.00103 | – | 0.00158 | 0.00213 | 0.00307
in n-propanol | 0.00168 | – | 0.00203 | – | 0.00281 | 0.00386 | 0.00515
in water | 0.000969 | – | 0.0012 | – | 0.0015 | 0.00197 | 0.00266
